Calls of active or inactive are those of the source. The calls are words filed in the database; no cut-off is given here.
How the values were obtained:
HCT-15 = assay: Cytotoxicity against human HCT15 cells by SRB assay; assay type: functional, cell-based
A549 = assay: Cytotoxicity against human A549 cells by SRB assay; assay type: functional, cell-based
SK-MEL-2 = assay: Cytotoxicity against human SK-MEL-2 cells by SRB assay; assay type: functional, cell-based
[1] = Cytotoxicity against mouse BV2 cells assessed as cell viability at 20 uM by MTT assay; assay type: cell-based, BV-2; conditions: read-out: Activity
BV-2 [2] = assay: Antiinflammatory activity in mouse BV2 cells assessed as inhibition of LPS-induced NO production treated 30 mins before LPS stimulation measured after 24 hrs by Griess reaction; assay type: functional, cell-based
SK-OV-3 = assay: Cytotoxicity against human SKOV3 cells by SRB assay; assay type: functional, cell-based
[3] = target: T1, Nitric oxide synthase, inducible (Mus musculus) (UniProt P29477); assay: Inhibition of iNOS activity in mouse BV2 cells assessed as inhibition of LPS-induced NO production at 20 uM treated 12 hrs before LPS challenge measured after 12 hrs by Griess reaction; assay type: cell-based; conditions: BV-2
T1 sequence (whole entry): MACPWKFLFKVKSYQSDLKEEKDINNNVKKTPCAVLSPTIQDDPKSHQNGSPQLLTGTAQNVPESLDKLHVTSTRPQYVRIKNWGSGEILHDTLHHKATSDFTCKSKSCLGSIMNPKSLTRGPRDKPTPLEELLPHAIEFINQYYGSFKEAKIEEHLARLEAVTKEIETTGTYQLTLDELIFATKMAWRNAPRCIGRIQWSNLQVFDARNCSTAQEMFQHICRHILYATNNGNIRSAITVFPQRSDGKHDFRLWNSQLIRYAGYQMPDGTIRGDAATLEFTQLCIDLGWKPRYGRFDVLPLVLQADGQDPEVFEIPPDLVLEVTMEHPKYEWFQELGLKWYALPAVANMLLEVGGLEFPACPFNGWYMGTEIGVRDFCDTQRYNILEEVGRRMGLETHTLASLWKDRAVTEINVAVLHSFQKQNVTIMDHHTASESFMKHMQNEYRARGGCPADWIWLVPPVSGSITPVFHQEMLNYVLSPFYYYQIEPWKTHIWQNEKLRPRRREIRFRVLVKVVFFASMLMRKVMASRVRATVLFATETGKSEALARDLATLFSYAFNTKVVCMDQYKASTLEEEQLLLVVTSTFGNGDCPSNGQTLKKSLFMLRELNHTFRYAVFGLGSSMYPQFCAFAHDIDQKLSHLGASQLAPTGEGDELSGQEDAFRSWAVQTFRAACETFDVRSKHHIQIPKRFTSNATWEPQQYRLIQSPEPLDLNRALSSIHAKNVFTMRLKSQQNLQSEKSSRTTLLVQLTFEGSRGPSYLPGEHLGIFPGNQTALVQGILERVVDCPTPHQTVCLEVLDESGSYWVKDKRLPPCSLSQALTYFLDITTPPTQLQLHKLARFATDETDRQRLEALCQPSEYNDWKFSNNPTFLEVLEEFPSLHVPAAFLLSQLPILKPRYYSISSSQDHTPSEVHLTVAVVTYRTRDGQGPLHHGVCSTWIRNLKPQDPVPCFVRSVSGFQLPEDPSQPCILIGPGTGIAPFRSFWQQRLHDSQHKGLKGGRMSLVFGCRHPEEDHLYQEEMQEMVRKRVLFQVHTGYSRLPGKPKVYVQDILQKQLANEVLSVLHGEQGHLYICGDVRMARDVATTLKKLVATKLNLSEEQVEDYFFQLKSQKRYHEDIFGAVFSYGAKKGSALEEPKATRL

BV-2 [4] = assay: Antiinflammatory activity in mouse BV2 cells assessed as inhibition of LPS-induced iNOS protein expression at 10 to 20 uM treated 30 mins before LPS stimulation measured after 6 hrs by Western blot analysis; assay type: functional, cell-based
BV-2 [5] = assay: Antiinflammatory activity in mouse BV2 cells assessed as inhibition of sodium nitroprusside-induced nitrite accumulation at 10 to 20 uM after 180 mins by Griess reaction; assay type: functional, cell-based

IC50 (BV-2 [2]) [µM]	inhibition [3]	Structure (SMILES)	IC50 (HCT-15) [µM]	IC50 (A549) [µM]	IC50 (SK-MEL-2) [µM]	viability at 20 µM [1] [%]	IC50 (SK-OV-3) [µM]	inhibition (BV-2 [4])	inhibition (BV-2 [5])
58.1		O=C(CCO)c1ccc(O)cc1	> 30	> 30	> 30	107	> 30		
14.1	Active	COc1cc(/C=C\CO)ccc1O	20.4	11	14.7	98.4	13	Active	
> 500		COc1ccc(CCCO)cc1OC	26.6	23.1	21.9	103	11.8		
32.1		COc1cc(/C=C\C(=O)NCCc2ccc(O)cc2)ccc1O	> 30	> 30	> 30	100	> 30		
54.8		COc1cc(/C=C/C(=O)NC[C@@H](O)c2ccc(O)cc2)ccc1O	> 30	> 30	> 30	98.3	> 30		
37.2		COc1cc([C@H](O)[C@@H](CO)Oc2c(OC)cc(CCCO)cc2OC)ccc1O (relative stereo)	> 30	> 30	29.1	106	> 30		
17.4	Active	COc1cc(/C=C/C(=O)NCCc2ccc(O)cc2)ccc1O [N-TRANS-FERULOYL TYRAMINE]	> 30	> 30	> 30	97.8	> 30	Active	Active

Second part, the molecule before the results:

Structure (SMILES)	IC50 (BV-2 [2]) [µM]	inhibition [3]	IC50 (HCT-15) [µM]	IC50 (A549) [µM]	IC50 (SK-MEL-2) [µM]	viability at 20 µM [1] [%]	IC50 (SK-OV-3) [µM]	inhibition (BV-2 [4])	inhibition (BV-2 [5])
COc1cc(CCCO)ccc1O[C@H](C)[C@H](O)c1cc(OC)c(OC)c(OC)c1	17.9	Active	24.3	4.17	14.2	88.8	26.2		
COc1cc(CCCO)cc(OC)c1OC	142		> 30	> 30	> 30	96.3	> 30		
COc1cc(OC)c([C@H]2[C@@H](C)[C@@H](c3cc(OC)c(OC)cc3OC)O[C@@H]2C)cc1OC (relative stereo)	59.9		> 30	> 30	11.3	101	26.4		
COc1cc(OC)c([C@@H]2[C@H](C)[C@@H](C)[C@H]2c2cc(OC)c(OC)cc2OC)cc1OC (relative stereo) [MAGNOSALIN]	18.7		23.1	19.6	8.7	93.1	27.4	Active	Active
COc1cc(OC)c(OC)cc1/C=C\CO [ACORAMOL]	126		> 30	> 30	25.2	105	> 30		
COc1cccc2c1C(=O)c1c(O)c3c(c(O)c1C2=O)C[C@@](O)(C(=O)CO)C[C@@H]3O[C@H]1C[C@H](N)[C@H](O)[C@H](C)O1 [DOXORUBICIN]			0.082		0.004		0.004		
COc1cc(CCCO)ccc1O[C@H](C)[C@@H](O)c1cc(OC)c(OC)c(OC)c1 [SURINAMENSINOL B]	8.17		18.8	5.41	10.4	76.2	21.4		Active
CNC(=N)NCCC[C@H](N)C(=O)O [TILARGININE]	18.2					98.8			
